Data on one molecule can be found in patent US20180360767A1, “BIOCOMPATIBLE PARTICLES AND METHODS OF MAKING AND USE THEREOF” (priority 2015, published 2018).

Data set [1] has as its system doxorubicin-resistant HeLa cells. The data set can be described thus: In vitro cytotoxicity on doxorubicin-resistant cells. It counts as cell-based. The following applies: even at a concentration of 5 mg L^−1. As to the method: Next, the cytotoxicity of doxorubicin-loaded nanospheres towards HeLa cells was evaluated with 3-(4, 5-dimethylthiazol-2-yl)-2, 5-diphenyltetrazolium bromide (MTT) assay. HeLa cells (1×10^4 cells per well) were seeded in the 96-well plates. After culture for 24 h, the cells were exposed to the doxorubicin solution and doxorubicin-loaded liquid metal nanoparticles with different concentrations of doxorubicin for 24 h, followed by adding 20 μl of the MTT solution (5 mg mL^−1). After 4 h of incubation, the medium was removed, and the cells were mixed with 150 μl of dimethyl sulfoxide. The absorbance was measured at a test wavelength of 570 nm and a reference wavelength of 630 nm by a microplate reader (Infinite M200 PRO, Tecan).
Next, the in vitro cytotoxicity of doxorubicin loaded ligand-capped liquid metal nanoparticles towards doxorubicin-resistant HeLa cells was investigated.

Data set [2] is described as follows: Pharmacokinetics, doxorubicin concentration in blood plasma after intravenous injection. The conditions noted are these: mouse, 2 mg/kg.
A short description of a further data set: in vivo. The following applies: mouse, iv, 2 mg/kg.

`COc1cccc2c1C(=O)c1c(O)c3c(c(O)c1C2=O)C[C@@](O)(C(=O)CO)C[C@@H]3O[C@H]1C[C@H](N)[C@H](O)[C@H](C)O1` [Doxorubicin]: the cytotoxicity result in data set [1] is recorded as “did not show any obvious cytotoxicity”. For the same molecule, in data set [2], the MRT came to 2.8 ± 0.61 h and the half-life is 1.11 ± 0.02 h. Moreover, the maximum concentration (Cmax) in “in vivo” amounted to 1.45 ± 0.06 µg/mL.

For orientation: MRT means the average time that molecules of a dose stay in the body. A word on the half-life: it is the time in which the quantity being followed falls by half. A high value points to slow loss. As a reminder, the Cmax is the highest concentration seen after dosing.
